Non-standard residues stand in square brackets, D forms with d. No end group written: not given here. *: point of attachment. FITC = O=C1OC2(c3ccc(O)cc3Oc3cc(O)ccc32)c2ccc(NC(=S)*)cc21; Ahx = NCCCCCC(=O)O
Legend:
CD13 = biological target: T1, CD13 (Homo sapiens, UniProt P15144); test: Analytical test of binding protein by immunoprecipitation; conditions: HT-1080 cells, 80 μg/400 μL, 4° C., 2 hours
T1 construct: endogenous in cells; host or cells: HT-1080 cells
Protocol: Example 2 (80 μg/400 μL) reacted to HT-1080 cells (40 million cells) at 4° C. for 2 hours. The cells were then washed with PBS, and centrifuged. The centrifuged cells were dissolved in 1,000 μL of IP Lysis/Wash buffer (Thermo Fisher Scientific) with Halt Protease & Phosphatase inhibitor Single-Use Cocktail, ETDA-Free (Thermo Fisher Scientific) (10 μL) at 4° C. for 5 minutes. It was centrifuged at 4° C. for 10 minutes and the supernatant was collected. The supernatant was adjusted to be 1 mg in amount of protein and 80 μL of A/G agarose was added to it. The mixture was stirred at 4° C. for 1 hour and then centrifuged for 1 minute. Thus, a pre-treatment solution was obtained. 10 μg of IgG Fraction Monoclonal Mouse Anti-Fluorescein (FITC) (Jackson ImmunoResearch) or 10 μg of Mouse IgG Isotype Control (Thermo Fisher Scientific) was each added to the pre-treatment solution (1 mg/600 μL), and the mixtures were shaken at 4° C. overnight. Subsequently, 20 μL of A/G agarose was added and the mixtures were shaken at 4° C. for 2 hours. The mixtures were washed three times with the wash buffer described above and 20 μL of 2×Non-reducing Lane Marker Sample Buffer (Thermo Fisher Scientific) was added to the A/G agaroses. […]
The 10% solution used in immunoprecipitation was loaded to the left lane of FIG. 3. […] CD13 was not detected on the right lane, but CD 13 was detected on the center lane.

HT-1080 cells = test: Test on nuclear transport (confocal, DAPI); type: cell-based, human; conditions: 50 μg/mL; for intracellular localization: HT-1080 cells
Excerpt: (§1) Human fibrosarcoma-derived HT-1080 cells (HT-1080 cells, JCRB cell bank) were used as cancer cells in the test for monitoring changes in mitochondrial membrane potential. HT-1080 cells, human osteosarcoma cell line Hos cells (Hos cells, JCRB cell bank), human histiocytic lymphoma/macrophage U937 cells (U937 cells, JCRB cell bank), human myeloid leukemia HL-60 cells (HL-60 cells, JCRB cell bank), acute monocytic leukemia THP-1 cells (THP-1 cells, JCRB cell bank), human alveolar basal epithelial adenocarcinoma cell A549 cells (A549 cells, Cell Resource Center for Biomedical Research, Institute of Development, Aging and Cancer, Tohoku University), human pancreatic carcinoma cells (MIA Paca 2 cells, Cell Resource Center for Biomedical Research, Institute of Development, Aging and Cancer, Tohoku University) and well differentiated human liver carcinoma-derived cell line HuH7 cells (HuH7 cells, Cell Resource Center for Biomedical Research, Institute of Development, Aging and Cancer, Tohoku University) were used as cancer cells in an in vitro cell-death induction test of cancer cells and a nuclear transport test of Example 2. Normal human gingival fibroblast cells Gin-1 (Gin-1 cells, DS Pharma Biomedical) were used as a control. The above-described cells were each inoculated into a 96-well culture plate (Falcon) at 5,000 cells/[…] and subjected to the following tests.
The cells were cultured in 200 μL of serum-supplemented medium (α-MEM+10% FBS) to be 50 μg/mL at the final concentration of Example 2 for 3 or 9 days. The cell-death was not detected in the culture on day 3. On the contrary, since the cell-death was detected in the culture on day 9, the day 9 culture as described above was used for the tests. The above each cell was separated and transferred to a Cellview glass bottom dish (35×10 mm) (Greiner). The cells on day 3 were fixed with 10% formalin-ethanol and then dyed with DAPI. The cells on day 9 were dyed with DAPI without fixation.
FIG. 4 is the photographs of Example 2 (green), DAPI (blue), overlay images of Example 2 (green) and DAPI (blue) and differential interference image on the HT-1080 cells on day 3 or 9.

Gin-1 cells = test: Test on nuclear transport (confocal Z scan, DAPI); type: cell-based, human; conditions: 50 μg/mL, 9 days
Excerpt: as §1
(§2) Further, 50 μg/mL of Example 2 was added to the Gin-1 or above cancer cells. The cells were cultured for 9 days and scanned with Z scan technique using the confocal laser scanning microscope LSM800 after dyed with DAPI. FIG. 5A is each photograph of XY, XZ and YZ cross sections that was merged with Example 2 (green) and DAPI (blue) in the Gin-1 or above-described cancer cells. […] The color of the images merged with the Example 2 and DAPI dye took on light blue in the U937, H1-60, THP-1 and Hos cells.

THP-1 cells = test: Test on nuclear transport (confocal Z scan, DAPI); type: cell-based, human; conditions: 50 μg/mL, 9 days
Excerpt: as §1, §2

U937 cells = test: Test on nuclear transport (confocal Z scan, DAPI); type: cell-based, human; conditions: 50 μg/mL, 9 days
Excerpt: as §1, §2

A549 cells = test: Test on nuclear transport (confocal Z scan, DAPI); type: cell-based, human; conditions: 50μ/mL, 23 days
Excerpt: as §1
(§3) Similarly, 50μ/mL of Example 2 was added to the A549, MIA Paca2 and HuH7 cells. The cells were cultured for 23 days and then scanned by the Z scan technique using the confocal laser scanning microscope LSM800 after dyed with DAPI. FIG. 5B is each photograph of XY, XZ and YZ cross sections that were merged with Example 2 (green) and DAPI (blue) in the variety of cancer cells. As a result, the color of the images merged with Example 2 and DAPI dye took on light blue.

HuH7 cells = test: Test on nuclear transport (confocal Z scan, DAPI); type: cell-based, human; conditions: 50μ/mL, 23 days
Excerpt: as §1, §3

MIA Paca2 cells = test: Test on nuclear transport (confocal Z scan, DAPI); type: cell-based, human; conditions: 50μ/mL, 23 days
Excerpt: as §1, §3

T1 sequence (P15144 whole entry): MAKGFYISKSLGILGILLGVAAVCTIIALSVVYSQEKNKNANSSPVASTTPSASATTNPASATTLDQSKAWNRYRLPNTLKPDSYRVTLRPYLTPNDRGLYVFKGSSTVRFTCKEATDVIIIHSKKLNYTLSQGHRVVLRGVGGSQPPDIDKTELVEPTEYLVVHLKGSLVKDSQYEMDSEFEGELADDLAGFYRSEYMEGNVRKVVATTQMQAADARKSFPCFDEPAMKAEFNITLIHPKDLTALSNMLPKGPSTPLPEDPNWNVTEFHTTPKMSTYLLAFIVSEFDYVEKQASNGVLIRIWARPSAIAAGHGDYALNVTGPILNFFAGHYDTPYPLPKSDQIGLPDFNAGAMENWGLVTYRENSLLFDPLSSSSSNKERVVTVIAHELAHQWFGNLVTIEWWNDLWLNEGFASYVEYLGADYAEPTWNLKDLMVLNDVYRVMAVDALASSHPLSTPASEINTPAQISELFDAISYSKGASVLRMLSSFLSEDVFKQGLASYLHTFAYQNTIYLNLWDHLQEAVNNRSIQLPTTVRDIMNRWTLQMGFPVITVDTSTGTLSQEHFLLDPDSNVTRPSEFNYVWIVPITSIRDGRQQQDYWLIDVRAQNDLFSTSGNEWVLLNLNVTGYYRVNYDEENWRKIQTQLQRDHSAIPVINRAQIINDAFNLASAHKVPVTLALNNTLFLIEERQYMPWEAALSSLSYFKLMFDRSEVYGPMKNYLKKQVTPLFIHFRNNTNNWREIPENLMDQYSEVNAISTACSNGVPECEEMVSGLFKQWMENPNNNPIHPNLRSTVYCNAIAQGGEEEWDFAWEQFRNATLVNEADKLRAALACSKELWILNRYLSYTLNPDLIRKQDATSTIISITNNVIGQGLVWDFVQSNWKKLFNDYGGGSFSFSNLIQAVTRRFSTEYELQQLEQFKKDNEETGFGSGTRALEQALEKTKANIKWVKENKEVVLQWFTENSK

Example 2: peptide of SEQ ID NO: 1 labeled with FITC, bound via an Ahx linker at the N-terminus ({FITC}-[Ahx]KDNRGNLLQCVCTGNGRGEWKC; cysteine pairing not given here)
binding to CD13 (co-immunoprecipitation with anti-FITC, Western blotting) (CD13): proved to bind to CD13 on a cell membrane specifically | cell-death in the culture (HT-1080 cells; day 3): not detected | cell-death in the culture (HT-1080 cells; day 9): detected | intracellular localization (HT-1080 cells; day 3): present at a cytoplasm | intracellular localization (HT-1080 cells; day 9): transferred to a nucleus and bound to a chromosome DNA | intracellular localization (Gin-1 cells): remain still in the cytoplasm | intracellular localization (THP-1 cells): transfer to a nucleus and bind to a chromosome DNA | intracellular localization (U937 cells): transfer to a nucleus and bind to a chromosome DNA | intracellular localization (A549 cells): transfer to a nucleus and bind to a chromosome DNA | intracellular localization (HuH7 cells): transfer to a nucleus and bind to a chromosome DNA | intracellular localization (MIA Paca2 cells): transfer to a nucleus and bind to a chromosome DNA

From patent publication US12472226B2, “Cell-permeable peptide” (priority 2019, dated 2025)
